Measurements: patent US4108726A, “Sarcoidosis test” (Research Corporation, priority 1976, dated 1978)
Where a SMILES comes first, the peptide text is derived from it. The star is where a group is joined. Bz = O=C(c1ccccc1)*

Legend:
[1] = system: porcine lung L-histidyl-L-leucine peptidase; details: Lee, Larue and Wilson 1971; cited from earlier work
[2] = system: L-histidyl-L-leucine peptidase; assay: Hydrolysis of L-histidyl-L-leucine by human serum peptidase, fluorimetric; assay type: biochemical; details: estimated from 1/v-1/S plots
Experimental: Hydrolysis of the product L-histidyl-L-leucine was determined fluorimetrically by adding L-histidyl-L-leucine to an assay mixture which contained buffer and serum and was handled as described for the enzyme assays, including a zero time control. Hydrolysis was accompanied by a decrease in fluorescence from that obtained with the initial concentration as determined in the zero time control. The quantity hydrolyzed was determined by multiplying the fraction hydrolyzed (decrease in FI/initial FI) by the initial concentration. No correction was made for the fluorescence of L-histidine since it was only about 8% of the fluorescence of L-histidyl-L-leucine.
The activity of the L-histidyl-L-leucine hydrolyzing activity was measured in several sera under the conditions of the orginal assay (50 μl sera in 125 μl 0.1 M K phosphate-0.3 M NaCl, pH 8.3) using as substrate 0.2 mM L-histidyl-L-leucine, a concentration typically formed in the angiotensin converting enzyme reaction mixture. […] The velocity of the L-histidyl-L-leucine peptidase reaction was determined at varying L-histidyl-L-leucine concentrations. The Km for L-histidyl-L-leucine of the peptidase was estimated from l/.nu.-l/S plots, see Lineweaver, H. and Burk, D. (1934). J. Amer. Chem. Soc. 56, 658, to be 0.16 mM. […]

[3] = system: serum angiotensin converting enzyme; assay: Serum angiotensin converting enzyme assay with angiotensin I as substrate; assay type: biochemical, human
Experimental: Three mg of angiotensin I were dissolved in 10 ml buffer, 0.03125 M NaCl and 0.104 M potassium phosphate, pH 7.5. The optical density (O.D.) of the solution at 275 nM was measured against the buffer. The O.D. of the angiotensin I solution was adjusted to 0.272 by either adding more buffer or solid angiotensin I. Based on a mMolar extintion coefficient of 1.31 at 275 nM, the final concentration in the assay was 0.2 mM angiotensin I which is about 4-5 times the Km of this enzyme previously measured. Two hundred forty μl of the angiotensin I solution were added to each tube, then warmed to 37° C. […] of serum were added to each tube, sealed and incubated for 1 hour. […]
For fluorescence development, 100 μl of 2% o-phthaldialdehyde in methanol were added to each tube and mixed with a vortex mixer. […] The fluorescence was read in a 1 cm rectangular fluorescence cuvette in a Perkin-Elmer MPF-4 fluorimeter with a 4 mm entrance and 8 mm exit slit and a 7.5 V energy output between 30-90 minutes after the addition of HCl, during which time the fluorescence was stable. The excitation wavelength was […] and the emission fluorescence wavelength was […].
Calculation of enzymatic activity in nmoles L-histidyl-L-leucine released/min/ml of serum was calculated as follows: Angiotensin converting enzyme activity, nmole his-leu released/min/ml serum = [formula]

[4] = target: serum angiotensin-converting enzyme (Homo sapiens, UniProt P12821); assay: Spectrofluorimetric serum angiotensin converting enzyme assay with hippuryl-L-histidyl-L-leucine substrate; assay type: biochemical; details: FIG. 2
Experimental: Substrate-buffer solution was prepared by mixing buffer, substrate and water at a ratio of 1:1:2.8 (final concentration in the assay mixture; 0.1M K phosphate, pH 8.3, 0.3M NaCl; 5mM hippuryl-L-histidyl-L-leucine).
Ten μl of serum was added to 240 μl of substrate-buffer solution at 37° C. in a 12 × 75 mm test tube tightly covered with Parafilm, mixed with a vortex mixer and incubated for 15 minutes at 37° C. Duplicate reaction mixtures were stopped by addition of 1.45 ml of 0.28 M NaOH and mixing with a vortex mixer. […] In order to keep the blank low, the development of fluorescence should be started as soon as possible after the addition of NaOH.
One hundred μl of o-phthaldialdehyde reagent was added to each tube which was mixed with a vortex mixer. […] The fluorescence was read in a 1 cm rectangular fluorescence cuvette in a Perkin-Elmer MPF-4 fluorimeter with 8 mm entrance and exit slits and a 7.5 V energy output between 30 and 90 minutes after addition of HCl, during which time it was stable. The excitation wavelength was 360 nm and the emission fluorescence wavelength was 500 nm.
Enzyme activity in nmoles L-histidyl-L-leucine/min/ml serum was calculated by two methods. The first is applicable for ratios of up to 2 of corrected assay/standard fluorescence. […]

[5] = Apparent hydrolysis of hippuryl-L-histidyl-L-leucine in NaOH; assay type: physicochemical; details: 30 minutes between NaOH addition and fluorescence development
Experimental: Ten μl of serum was added to 240 μl of substrate-buffer solution at 37° C. in a 12 × 75 mm test tube tightly covered with Parafilm, mixed with a vortex mixer and incubated for 15 minutes at 37° C. Duplicate reaction mixtures were stopped by addition of 1.45 ml of 0.28 M NaOH and mixing with a vortex mixer. A substrate-buffer blank was similarly treated at the same time except that enzyme was added immediately after NaOH, and was an important control for the slow breakdown of hippuryl-L-histidine-L-leucine in NaOH. In order to keep the blank low, the development of fluorescence should be started as soon as possible after the addition of NaOH.
When large quantities of enzyme were used, this effect was small compared to the total fluorescence developed. However, the increase in fluorescence intensity of the blank in 30 minutes was equivalent to 1.3 nmol/min/ml and would result in a value 4% below the true one for an enzyme activity of 34 nmol/min/ml, which is in the normal range. To avoid spuriously high blanks due to base catalyzed hydrolysis, addition of NaOH to the blank, followed by enzyme, was made at the same time that NaOH was added to terminate the enzymatic reaction of the reacted samples.

[6] = system: angiotensin converting enzyme of rabbit lung; details: rabbit lung enzyme system; Cushman and Cheung 1971; cited from earlier work

Chain of serum angiotensin-converting enzyme (P12821 30-1232): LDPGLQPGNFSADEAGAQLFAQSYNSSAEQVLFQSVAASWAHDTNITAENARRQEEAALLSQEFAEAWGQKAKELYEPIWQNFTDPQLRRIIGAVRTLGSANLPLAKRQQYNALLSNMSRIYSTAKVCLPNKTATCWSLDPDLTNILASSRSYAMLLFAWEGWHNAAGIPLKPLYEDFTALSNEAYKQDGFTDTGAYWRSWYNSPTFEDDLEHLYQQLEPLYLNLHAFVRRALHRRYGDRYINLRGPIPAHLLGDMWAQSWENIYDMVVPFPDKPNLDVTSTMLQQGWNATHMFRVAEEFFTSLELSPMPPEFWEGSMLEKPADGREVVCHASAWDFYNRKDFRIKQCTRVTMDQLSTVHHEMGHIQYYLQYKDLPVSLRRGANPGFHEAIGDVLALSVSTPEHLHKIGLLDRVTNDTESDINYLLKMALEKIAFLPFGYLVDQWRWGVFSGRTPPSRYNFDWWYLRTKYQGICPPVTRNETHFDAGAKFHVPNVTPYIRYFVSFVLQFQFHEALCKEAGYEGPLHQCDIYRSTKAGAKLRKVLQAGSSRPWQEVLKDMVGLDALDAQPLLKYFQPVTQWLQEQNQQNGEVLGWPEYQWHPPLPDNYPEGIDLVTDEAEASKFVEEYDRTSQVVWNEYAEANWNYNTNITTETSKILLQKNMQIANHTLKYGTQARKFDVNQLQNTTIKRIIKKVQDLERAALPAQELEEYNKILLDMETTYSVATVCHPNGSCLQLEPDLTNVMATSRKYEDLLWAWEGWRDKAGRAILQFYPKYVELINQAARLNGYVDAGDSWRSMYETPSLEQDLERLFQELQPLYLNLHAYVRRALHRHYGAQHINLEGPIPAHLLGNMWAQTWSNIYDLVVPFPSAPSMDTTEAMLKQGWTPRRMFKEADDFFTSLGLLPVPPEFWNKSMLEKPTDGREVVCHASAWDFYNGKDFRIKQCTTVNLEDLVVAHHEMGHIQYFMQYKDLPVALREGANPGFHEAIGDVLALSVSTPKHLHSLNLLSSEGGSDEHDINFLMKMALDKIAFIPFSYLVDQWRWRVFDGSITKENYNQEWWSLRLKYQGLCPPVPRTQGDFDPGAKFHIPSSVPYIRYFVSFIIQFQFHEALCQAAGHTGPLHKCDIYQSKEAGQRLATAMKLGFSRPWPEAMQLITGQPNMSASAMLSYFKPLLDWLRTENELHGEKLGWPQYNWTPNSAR

CC(C)C[C@H](NC(=O)[C@@H](N)Cc1c[nH]cn1)C(=O)O [L-histidyl-L-leucine] (H-His-Leu-OH)
Km [1]: 200 µM
Km [2]: 160 µM

angiotensin I (DRVYIHPFHL; Angiotensin-1; UniProt P01019 25-34, looked up) [decapeptide natural substrate of angiotensin converting enzyme]
Activity as substrate compared with hippuryl-L-histidyl-L-leucine [3]: considerably lower

CC(C)C[C@H](NC(=O)[C@H](Cc1c[nH]cn1)NC(=O)CNC(=O)c1ccccc1)C(=O)O [hippuryl-L-histidyl-L-leucine, Hippuryl-L-histidyl-L-leucine] (Bz-Gly-His-Leu-OH)
Substrate concentration at maximum activity [4]: 5 mM
Substrate concentration at which inhibition was noted [4]: 15 mM
Increase in fluorescence intensity of the blank, as equivalent enzyme activity (base-catalyzed hydrolysis) [5]: 1.3 nmol/min/mL
Km [6]: 2600 µM
Substrate concentration above which inhibition was present [6]: above 10 mM
